# Measured values from patent US7273866B2, “2-aryl thiazole derivatives as KCNQ modulators” (Bristol-Myers Squibb Company, priority 2002, dated 2007).
# Test system: KCNQ channels
# Assay: Thallium flux assay for KCNQ channel openers
# Type: cell-based
# Settings: HEK-293 cells stably transfected with a KCNQ family member; for Min. conc. response: minimal active concentration: lowest concentration giving signal amplitude >= four standard deviations of negative controls; for EC50: thallium flux, 10 point concentration series
# Experimental: Thallium Flux Assay for KCNQ channel Openers. The thallium assay is a modification of that published by Weaver and is referenced in its entirety (Weaver, C. D. WO 02/31508, 2002).
# Approximately 20,000 cells/well of an HEK-293 cell line stably transfected with one of the members of the KCNQ family were plated into clear-bottom, black-walled, poly-D-lysine coated, 384 well assay plates in 20 μl/well of low chloride plating medium. Low chloride plating medium was composed of the following: sodium gluconate, 109 mM; potassium gluconate, 5.4 mM; hemi-calcium gluconate, 3.6 mM; magnesium sulfate, 0.8 mM; sodium bicarbonate, 26.2 mM; sodium phosphate monobasic, 1.2 mM; glutamine, 2 mM; glucose, 5 mM; 4-(2-hydroxyethyl)-1-piperazineethanesulfonic acid (HEPES) (pH 7.3) 10 mM, MEM vitamin solution (10× concentration of vitamins, Gibco/LifeTechnologies 11120-052) and MEM amino acid solution (1× concentration of amino acids, Gibco/LifeTechnologies 11130-051).
# Following overnight incubation in a 5% CO2 incubator at 37° C., the cells in the plates were loaded with 20 μl/well of a dye loading solution containing the commercially available thallium-sensitive fluorescent dye BTC-AM, the acetomethoxy ester of BTC (see U.S. Pat. No. 5,501,980) (2 μM) and pluronic acid F-127 (Molecular Probes P 6867) (0.02% w/v) in chloride free assay buffer. Chloride free assay buffer was composed of the following: sodium gluconate, 140 mM; potassium gluconate, 2.5 mM; hemi-calcium gluconate, 6 mM; hemi-magnesium gluconate, 2 mM; glucose, 5 mM; HEPES (pH 7.3), 10 mM.
# Following incubation in the dye loading solution for from 45-90 min at room temperature, the dye loading solution was removed by aspiration and replaced with 40 μl/well of chloride free assay buffer.
# Prior to addition to cell plates, test compound and standard compounds were dissolved in DMSO to 3 mM concentration. Compounds were then diluted from the 3 mM stock to 100-fold over the final assay concentration in DMSO. Finally, compounds in DMSO were diluted from 100-fold over the final assay concentration to 5-fold over the final assay concentration in chloride free assay buffer.
# Ten μl/well of compounds at 5-fold over the final assay concentration were then added to the cell plates. This represents a 1:5 dilution, yielding the final test concentration. The wells used for test compounds were A1-P20. Wells A21-P22 contained a standard opener and a maximally efficacious concentration (positive control). Wells A23-P24 contained chloride free assay buffer containing 1% DMSO (negative control).
# Following addition of test compounds, the plates were loaded onto the Molecular Devices FLIPR. The 488 nm line of the argon laser was used to excite the BTC and the emission filter was a 540(+/−30) nm. Images were collected at 1 Hz. Ten seconds of baseline were collected and then the FLIPR was used to add 13 μl/well of a stimulus buffer composed of 7.5 mM Tl2SO4 in chloride free assay buffer. Images were collected for an additional 60 seconds.
# For data analysis, the amplitude of the average of the negative controls was subtracted from all wells. The amplitudes of the test compounds were then compared to the value of four standard deviations of the negative control wells. The lowest concentration of a test compound sufficient to generate a signal amplitude greater than or equal to four standard deviations from the amplitude of the negative controls was defined as the minimal active concentration.
# For generating EC50 values, compounds were serially diluted in 1:3 volume increments to produce a 10 point concentration series. EC50 values were calculated by fitting the resulting amplitudes to a single-site logistic equation. EC50 was defined as the concentration of test compound required to yield 50% of the maximal response. Maximal response (Maximal opening) was the largest signal amplitude divided by the negative control amplitude generated by any concentration of a test compound. […]
SMILES,EC50 [nM],Min. conc. response [µM]
"COc1ccc(F)cc1-c1nc(C(F)(F)F)c(C(=O)NC(C)c2cccc(N(C)C)c2)s1 (stereo not shown) [Example 42, 2-(5-fluoro-2-methoxyphenyl)-4-(trifluoromethyl)-N-[1-[3-(dimethylamino)phenyl]ethyl]-5-thiazolecarboxamide]",50 to 1000,10
"COc1cccc(CNC(=O)c2sc(-c3cc(F)ccc3OC)nc2C(F)(F)F)c1 [Example 45, 2-(5-fluoro-2-methoxyphenyl)-4-(trifluoromethyl)-N-[(3-methoxyphenyl)methyl]-5-thiazolecarboxamide]",1000 to 20000,3
"COc1ccc(F)cc1-c1nc(C(F)(F)F)c(C(=O)NCc2cccc(OC(F)(F)F)c2)s1 [Example 46, 2-(5-fluoro-2-methoxyphenyl)-4-(trifluoromethyl)-N-[(3-trifluoromethoxyphenyl)methyl]-5-thiazolecarboxamide]",1000 to 20000,10
"CC(NC(=O)c1sc(-c2ccccc2Cl)nc1C(F)(F)F)c1cccc(N(C)C)c1 (stereo not shown) [Example 50, 2-(2-chlorophenyl)-4-(trifluoromethyl)-N-[1-[3-(dimethylamino)phenyl]ethyl]-5-thiazolecarboxamide]",50 to 1000,0.3
"C[C@H](NC(=O)c1sc(-c2ccccc2Cl)nc1C(F)(F)F)c1cccc(N2CCOCC2)c1 [Example 52, 2-(2-chlorophenyl)-4-(trifluoromethyl)-N-[1-[3-(4-morpholinyl)phenyl]ethyl]-5-thiazolecarboxamide]",50 to 1000,3
"COc1cccc(C(C)NC(=O)c2sc(-c3ccccc3N3CCOCC3)nc2C(F)(F)F)c1 (stereo not shown) [Example 55, 2-[2-(4-morpholinyl)phenyl]-4-(trifluoromethyl)-N-[1-[3-(methoxy)phenyl]ethyl]-5-thiazolecarboxamide]",1000 to 20000,0.3
"CC(NC(=O)c1sc(-c2ccc(N3CCOCC3)cc2)nc1C(F)(F)F)c1cccc(OC(F)(F)F)c1 (stereo not shown) [Example 58, 2-[4-(4-morpholinyl)phenyl]-4-(trifluoromethyl)-N-[1-[3-(trifluoromethoxy)phenyl]ethyl]-5-thiazolecarboxamide]",50 to 1000,30
CCN(Cc1ccncc1)Cc1ccccc1-c1nc(C(F)(F)F)c(C(=O)NCc2cccc(OC(F)(F)F)c2)s1 [Example 59],50 to 1000,3
"CCN(CC)Cc1cccnc1-c1nc(C(F)(F)F)c(C(=O)NC(C)c2cccc(OC(F)(F)F)c2)s1 (stereo not shown) [Example 61, 2-[3-(diethylaminomethyl)pyridin-2-yl]-4-(trifluoromethyl)-N-[1-[3-(trifluoromethoxy)phenyl]ethyl]-5-thiazolecarboxamide]",50 to 1000,30
CCN(Cc1ccncc1)Cc1cccnc1-c1nc(C(F)(F)F)c(C(=O)N[C@@H](C)c2cccc(N3CCOCC3)c2)s1 [Example 62],50 to 1000,3
CCN(Cc1ccncc1)Cc1cccnc1-c1nc(C(F)(F)F)c(C(=O)NC(C)c2cccc(CN3CCOCC3)c2)s1 (stereo not shown) [Example 63],50 to 1000,30
CCN(Cc1ccncc1)Cc1cccnc1-c1nc(C(F)(F)F)c(C(=O)N[C@@H](C)c2cccc(N3C[C@@H](C)O[C@@H](C)C3)c2)s1 [Example 66],50 to 1000,3

# Continued, in another order:
EC50 [nM],SMILES,Min. conc. response [µM]
50 to 1000,"COc1ccc(F)cc1-c1nc(C(F)(F)F)c(C(=O)NC(C)c2cccc(OC(F)(F)F)c2)s1 (stereo not shown) [Example 41, 2-(5-fluoro-2-methoxyphenyl)-4-(trifluoromethyl)-N-[1-[3-(trifluoromethoxy)phenyl]ethyl]-5-thiazolecarboxamide]",10
50 to 1000,"COc1ccc(F)cc1-c1nc(C(F)(F)F)c(C(=O)NC(C)c2cccc(C(F)(F)F)c2)s1 (stereo not shown) [Example 43, 2-(5-fluoro-2-methoxyphenyl)-4-(trifluoromethyl)-N-[1-[3-(trifluoromethyl)phenyl]ethyl]-5-thiazolecarboxamide]",3
50 to 1000,"COc1ccc(F)cc1-c1nc(C(F)(F)F)c(C(=O)NCc2cccc(F)c2)s1 [Example 44, 2-(5-fluoro-2-methoxyphenyl)-4-(trifluoromethyl)-N-[(3-fluorophenyl)methyl]-5-thiazolecarboxamide]",3
1000 to 20000,"COc1ccc(F)cc1-c1nc(C(F)(F)F)c(C(=O)N[C@@H](C)c2cccc(N3CCOCC3)c2)s1 [Example 47, (S)-2-(5-fluoro-2-methoxyphenyl)-4-(trifluoromethyl)-N-[1-[3-(4-morpholinyl)phenyl]ethyl]-5-thiazolecarboxamide]",3
50 to 1000,"COc1cccc([C@H](C)NC(=O)c2sc(-c3cc(F)ccc3OC)nc2C(F)(F)F)c1 [Example 48, (S)-2-(5-fluoro-2-methoxyphenyl)-4-(trifluoromethyl)-N-[1-[3-(methoxy)phenyl]ethyl]-5-thiazolecarboxamide]",3
50 to 1000,"CC(NC(=O)c1sc(-c2ccccc2Cl)nc1C(F)(F)F)c1cccc(OC(F)(F)F)c1 (stereo not shown) [Example 49, 2-(2-chlorophenyl)-4-(trifluoromethyl)-N-[1-[3-(trifluoromethoxy)phenyl]ethyl]-5-thiazolecarboxamide]",0.3
50 to 1000,"CC(NC(=O)c1sc(-c2ccccc2Cl)nc1C(F)(F)F)c1cccc(C(F)(F)F)c1 (stereo not shown) [Example 51, 2-(2-chlorophenyl)-4-(trifluoromethyl)-N-[1-[3-(trifluoromethyl)phenyl]ethyl]-5-thiazolecarboxamide]",0.3
1000 to 20000,"CC(NC(=O)c1sc(-c2ccccc2Cl)nc1C(F)(F)F)c1cccc(CN2CCOCC2)c1 (stereo not shown) [Example 53, 2-(2-chlorophenyl)-4-(trifluoromethyl)-N-[1-[3-(4-morpholinylmethyl)phenyl]ethyl]-5-thiazolecarboxamide]",3
1000 to 20000,CCN(CC)CCOc1ccccc1-c1nc(C(F)(F)F)c(C(=O)NCc2cccc(F)c2)s1 [Example 54],0.3
50 to 1000,"CC(NC(=O)c1sc(-c2ccccc2N2CCOCC2)nc1C(F)(F)F)c1cccc(C(F)(F)F)c1 (stereo not shown) [Example 56, 2-[2-(4-morpholinyl)phenyl]-4-(trifluoromethyl)-N-[1-[3-(trifluoromethyl)phenyl]ethyl]-5-thiazolecarboxamide]",0.3
50 to 1000,"CC(NC(=O)c1sc(-c2ccccc2N2CCOCC2)nc1C(F)(F)F)c1cccc(OC(F)(F)F)c1 (stereo not shown) [Example 57, 2-[2-(4-morpholinyl)phenyl]-4-(trifluoromethyl)-N-[1-[3-(trifluoromethoxy)phenyl]ethyl]-5-thiazolecarboxamide]",0.3
50 to 1000,CCN(Cc1ccncc1)Cc1ccccc1-c1nc(C(F)(F)F)c(C(=O)N[C@@H](C)c2cccc(OC)c2)s1 [Example 60],0.3
50 to 1000,"C[C@@H]1CN(c2cccc([C@H](C)NC(=O)c3sc(-c4ncccc4CN4CCOCC4)nc3C(F)(F)F)c2)C[C@H](C)O1 [Example 64, (S)-2-[3-(4-morpholinylmethyl)pyridin-2-yl]-4-(trifluoromethyl)-N-[1-[3-(2,6-dimethyl-4-morpholinyl)phenyl]ethyl]-5-thiazolecarboxamide]",10
50 to 1000,CCN(Cc1cccnc1-c1nc(C(F)(F)F)c(C(=O)N[C@@H](C)c2cccc(N3C[C@@H](C)O[C@@H](C)C3)c2)s1)C(C)C [Example 65],10
